According to PMC2818863 (Bioorganic & medicinal chemistry, 2009):

Legend:
Assay type in all cases: biochemical
[1] = biological target: PLAP (Homo sapiens, UniProt P05187); assay: PLAP luminescent assay; settings: for IC50: PLAP potency (IC50), mean ± SD of three experiments, CDP-star 85 μM
[2] = biological target: T1, IAP (Homo sapiens, UniProt P09923); assay: IAP luminescent assay; settings: ratio IC50 IAP / IC50 PLAP
T1 sequence (P09923 20-503 limits assumed): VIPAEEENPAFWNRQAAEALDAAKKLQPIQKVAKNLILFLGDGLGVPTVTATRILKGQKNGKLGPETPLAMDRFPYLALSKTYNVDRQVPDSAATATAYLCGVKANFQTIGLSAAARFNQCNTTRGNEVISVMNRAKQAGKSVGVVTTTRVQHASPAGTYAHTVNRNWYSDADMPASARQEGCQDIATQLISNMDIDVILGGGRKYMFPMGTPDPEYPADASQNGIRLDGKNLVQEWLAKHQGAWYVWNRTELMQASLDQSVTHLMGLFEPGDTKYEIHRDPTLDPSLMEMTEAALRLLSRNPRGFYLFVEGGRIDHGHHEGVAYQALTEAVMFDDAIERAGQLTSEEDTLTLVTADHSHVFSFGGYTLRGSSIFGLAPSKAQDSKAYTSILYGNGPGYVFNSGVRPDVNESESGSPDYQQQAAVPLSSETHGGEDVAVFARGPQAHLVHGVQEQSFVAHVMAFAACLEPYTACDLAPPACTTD

[3] = biological target: GCAP (Homo sapiens, UniProt P10696); assay: GCAP luminescent assay; settings: ratio IC50 GCAP / IC50 PLAP; for 12, 13, 20 from the separate-occasion values
[4] = biological target: T2, TNAP (Homo sapiens, UniProt P05186); assay: TNAP luminescent assay; settings: ratio IC50 TNAP / IC50 PLAP
T2 sequence (P05186 18-502 limits assumed): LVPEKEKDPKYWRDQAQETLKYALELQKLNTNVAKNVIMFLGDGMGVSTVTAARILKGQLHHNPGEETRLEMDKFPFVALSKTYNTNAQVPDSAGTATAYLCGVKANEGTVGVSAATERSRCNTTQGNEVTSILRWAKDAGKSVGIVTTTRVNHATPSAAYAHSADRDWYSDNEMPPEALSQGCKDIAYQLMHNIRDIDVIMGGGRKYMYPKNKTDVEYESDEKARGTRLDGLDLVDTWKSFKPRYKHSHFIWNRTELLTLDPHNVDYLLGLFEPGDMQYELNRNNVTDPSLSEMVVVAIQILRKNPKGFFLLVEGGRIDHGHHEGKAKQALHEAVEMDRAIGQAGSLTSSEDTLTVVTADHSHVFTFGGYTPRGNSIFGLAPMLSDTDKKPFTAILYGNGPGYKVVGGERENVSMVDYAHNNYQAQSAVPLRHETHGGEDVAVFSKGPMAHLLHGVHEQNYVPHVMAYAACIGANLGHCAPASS

PLAP, sequence (P05187 23-506 limits assumed): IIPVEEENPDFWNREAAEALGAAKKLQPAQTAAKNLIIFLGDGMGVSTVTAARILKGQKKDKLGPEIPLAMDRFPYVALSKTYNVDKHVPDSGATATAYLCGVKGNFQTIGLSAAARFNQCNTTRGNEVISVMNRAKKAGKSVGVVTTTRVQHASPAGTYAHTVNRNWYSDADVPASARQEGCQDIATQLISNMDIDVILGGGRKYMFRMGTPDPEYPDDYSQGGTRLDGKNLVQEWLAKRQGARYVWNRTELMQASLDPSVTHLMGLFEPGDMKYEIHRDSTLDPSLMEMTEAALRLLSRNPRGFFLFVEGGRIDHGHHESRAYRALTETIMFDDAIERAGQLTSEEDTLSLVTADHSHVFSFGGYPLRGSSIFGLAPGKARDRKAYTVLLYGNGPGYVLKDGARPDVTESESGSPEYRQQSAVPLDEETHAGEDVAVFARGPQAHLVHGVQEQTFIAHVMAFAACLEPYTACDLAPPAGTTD
GCAP, sequence (P10696 20-503 limits assumed): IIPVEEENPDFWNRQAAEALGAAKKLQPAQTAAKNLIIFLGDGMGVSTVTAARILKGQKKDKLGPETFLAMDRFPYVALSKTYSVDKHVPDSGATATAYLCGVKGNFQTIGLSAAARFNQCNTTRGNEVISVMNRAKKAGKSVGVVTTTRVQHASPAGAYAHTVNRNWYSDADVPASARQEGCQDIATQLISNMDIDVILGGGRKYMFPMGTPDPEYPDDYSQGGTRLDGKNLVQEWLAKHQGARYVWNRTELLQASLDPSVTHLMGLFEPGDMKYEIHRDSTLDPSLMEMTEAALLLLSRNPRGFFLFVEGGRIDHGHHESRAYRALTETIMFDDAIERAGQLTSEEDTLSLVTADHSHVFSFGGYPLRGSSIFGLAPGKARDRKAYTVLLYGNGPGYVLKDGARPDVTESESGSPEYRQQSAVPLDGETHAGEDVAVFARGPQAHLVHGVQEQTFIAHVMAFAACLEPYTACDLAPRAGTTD

IC50 [1] | PLAP inhibitory potency at 100 μM [1] | SMILES | further results
4.9 ± 0.6 µM |  | Cc1nc(Br)cn1CC(=O)c1ccc(O)c(O)c1 [Compound 19] | increase in PLAP inhibitory potency ([1]; 19 relative to 16): 3 fold
> 100 µM |  | Cc1cc(C(=O)NCc2ccc(O)c(O)c2)oc1C [Compound 25] | 
> 100 µM |  | Cc1cc(C(=O)NCCc2ccc(O)c(O)c2)oc1C [Compound 26] | 
> 100 µM |  | O=C(CSc1nnc(-c2ccccc2)[nH]1)c1ccc(O)c(O)c1 [Compound 28] | 
> 100 µM |  | Cn1c(SCC(=O)c2ccccc2)nnc1-c1cccc(N)c1 [Compound 29] | 
2 ± 0.1 µM |  | COc1ccc(-n2nnnc2SCC(=O)c2ccc(O)c(O)c2)cc1 [Compound 32] | 

The next lines start with the molecule.

SMILES | IC50 [1] | PLAP inhibitory potency at 100 μM [1] | further results
Cc1cc(C)nc(SCC(=O)c2ccc(O)cc2)n1 [Compound 3] | > 100 µM | no PLAP inhibitory potency | 
Cc1cc(C)nc(SCC(=O)c2cccc(O)c2)n1 [Compound 4] | > 100 µM | no PLAP inhibitory potency | 
COc1cc(C(=O)CSc2nc(C)cc(C)n2)ccc1O [Compound 5] | > 100 µM | no PLAP inhibitory potency | 
Cc1cc(C)nc(SCC(=O)c2ccc3c(c2)OCO3)n1 [Compound 6] | > 100 µM | no PLAP inhibitory potency | 
COc1ccc(C(=O)CSc2nc(C)cc(C)n2)cc1 [Compound 7] | > 100 µM | no PLAP inhibitory potency | 
O=C(Cn1ccnc1)c1ccc(O)c(O)c1 [Compound 8] | ~3 µM |  | 
Cc1cnn(CC(=O)c2ccc(O)c(O)c2)c1 [Compound 10] | 2.7 ± 0.1 µM |  | Selectivity (IAP/PLAP) [2]: > 25 fold
Cc1nccn1CC(=O)c1ccc(O)c(O)c1 [Compound 12] | 3.3 ± 0.2 µM |  | 
CCc1nccn1CC(=O)c1ccc(O)c(O)c1 [Compound 13] | ~3 µM |  | Selectivity (GCAP/PLAP) [3]: ^* (2.1)
Cc1cc2ncn(CC(=O)c3ccc(O)c(O)c3)c2cc1C [Compound 18] |  |  | Selectivity (TNAP/PLAP) [4]: > 17 fold
